In US6127382A, “Amines substituted with a tetrahydroquinolinyl group an aryl or heteroaryl group and an alkyl group, having retinoid-like biological activity” (Allergan Sales, Inc., priority 1999, dated 2000):

Each compound was assayed against T1, RARβ (Homo sapiens, UniProt P10826) (assay: ligand binding assay, RARβ). Conditions: read-out: RAR Bind Ki β.
T1 sequence (P10826 1-448 isoform P10826-2): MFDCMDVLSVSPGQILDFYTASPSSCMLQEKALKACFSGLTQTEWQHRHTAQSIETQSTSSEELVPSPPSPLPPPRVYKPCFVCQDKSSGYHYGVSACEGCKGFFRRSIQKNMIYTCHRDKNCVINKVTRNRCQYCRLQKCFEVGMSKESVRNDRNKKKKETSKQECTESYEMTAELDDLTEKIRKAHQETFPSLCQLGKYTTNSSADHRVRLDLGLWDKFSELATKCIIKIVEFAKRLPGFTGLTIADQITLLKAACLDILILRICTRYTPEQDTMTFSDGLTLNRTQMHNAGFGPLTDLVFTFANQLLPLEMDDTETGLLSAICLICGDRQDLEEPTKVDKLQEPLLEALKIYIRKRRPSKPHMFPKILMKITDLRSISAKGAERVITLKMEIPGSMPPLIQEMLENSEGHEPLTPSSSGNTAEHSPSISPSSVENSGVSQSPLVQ
From the text: Other assays described below, measure the ability of the compounds of the present invention to bind to, and/or activate various retinoid receptor subtypes. When in these assays a compound binds to a given receptor subtype and activates the transcription of a reporter gene through that subtype, then the compound is considered an agonist of that receptor subtype. […] In the below described assays the ability of the compounds to bind to RARα, RARβ, RARγ, RXRα, RXRβ and RXRγ receptors, and the ability or inability of the compounds to activate transcription of a reporter gene through these receptor subtypes can be tested. […] However, some of the compounds of the invention may behave as retinoid antagonists or partial antagonists and/or as inverse agonists. Because of the complex distribution of the different retinoid receptors in various organs of the mammalian body partial agonists and partial antagonists and compounds which have the characteristics of both may lend themselves to particularly useful therapeutic applications and may avoid serious side effects of conventional retinoid drugs.
A holoreceptor transactivation assay and a ligand binding assay which measure the antagonist/agonist like activity of the compounds of the invention, or their ability to bind to the several retinoid receptor subtypes, respectively, are described in published PCT Application No. WO WO93/11755 (particularly on pages 30-33 and 37-41) published on Jun. 24, 1993, the specification of which is also incorporated herein by reference. A detailed experimental procedure for holoreceptor transactivations has been described by Heyman et al. Cell 68, 397-406, (1992); Allegretto et al. J. Biol. Chem. 268, 26625-26633, and Mangelsdorf et al. The Retinoids: Biology, Chemistry and Medicine, pp 319-349, Raven Press Ltd., New York, which are expressly incorporated herein by reference. The results obtained in this assay are expressed in EC50 numbers, as they are also in the chimeric receptor transactivation assay. The results of ligand binding assay are expressed in Kd numbers. (See Cheng et al. Biochemical Pharmacology Vol. 22 pp 3099-3108, expressly incorporated herein by reference.)
Table 1 discloses the activity of certain exemplary compounds of the invention in the above-described chimeric receptor transactivation assay, holoreceptor transactivation assay and a ligand binding assays. Particularly, the transactivation data pertaining to RAR receptors were obtained in the chimeric assay, and the data pertaining to transactivation of RXR receptors were obtained in the holoreceptor transactivation assay.

Ki | Structure (SMILES)
11 µM | Cc1cc2c(cc1N(CC1CC1)c1ccc(C(=O)O)cc1)C(C)(C)CCN2C(C)C [Compound 26, 4-[(1-Isopropyl-4,4,7-trimethyl-1,2,3,4-tetrahydro-quinolin-6-yl)(cyclopropylmethyl)amino]benzoic acid]
> 30 µM | CCN(c1ccc(C(=O)O)cc1)c1ccc2c(c1)C(C)(C)CC(=O)N2C(C)C [Compound 6, 4-[(1-Isopropyl-4,4-dimethyl-2-oxo-1,2,3,4-tetrahydroquinolin-6-yl)ethylamino]benzoic Acid]
7.7 µM | CC(C)CCN(c1ccc(C(=O)O)cc1)c1ccc2c(c1)C(C)(C)CCN2C(C)C [Compound 14, 4-[(1-Isopropyl-4,4-dimethyl-1,2,3,4-tetrahydroquinolin-6-yl)(3-methylbutyl)amino]-benzoic Acid]
7.9 µM | CCN(c1ccc(C(=O)O)cc1)c1ccc2c(c1)C(C)(C)CCN2C(C)C [Compound 12, 4-[(1-Isopropyl-4,4-dimethyl-1,2,3,4-tetrahydroquinolin-6-yl)ethylamino]benzoic acid]
> 10 µM | CC(C)CN(c1ccc(C(=O)O)cc1)c1ccc2c(c1)N(C(C)C)CCC2(C)C [Compound 39, 4-[(1-Isopropyl-4,4-dimethyl-1 2,3,4-tetrahydroquinolin-7-yl)isobutylamino]benzoic acid]
> 10 µM | Cc1cc2c(cc1N(C)c1ccc(C(=O)O)cc1)C(C)(C)CCN2C(C)C [Compound 22, 4-[(1-Isopropyl-4,4,7-trimethyl-1,2,3,4-tetrahydroquinolin-6-yl)methylamino]benzoic acid]
24 µM | CC(C)N1CCC(C)(C)c2ccc(N(CC3CC3)c3ccc(C(=O)O)cc3)cc21 [Compound 40, 4-[(1-Isolpropyl-4,4-dimethyl-1,2,3,4-tetrahydroquinolin-7-yl)(cylopropylmethyl)amino]benzoic acid]
> 10 µM | CCN(c1ccc(C(=O)O)cc1)c1ccc2c(c1)N(C(C)C)CCC2(C)C [Compound 38, 4-[(1-Isopropyl-4,4-dimethyl-1,2,3,4-tetrahydroquinolin-7-yl)ethylamino]benzoic acid]
> 10 µM | CC(C)N1CCC(C)(C)c2cc(N(C)c3ccc(C(=O)O)cc3)ccc21 [Compound 10, 4-[(1-Isopropyl-4,4-dimethyl-1,2,3,4-tetrahydroquinolin-6-yl)methylamino]benzoic Acid]
> 10 µM | CCN(c1ccc(C(=O)O)cc1)c1cc2c(cc1C)N(C(C)C)CCC2(C)C [Compound 24, 4-[(1-Isopropyl-4,4,7-trimethyl-1,2,3,4-tetrahydroquinolin-6-yl)ethylamino]benzoic acid]
